Reference: paper PMC2839369 (Chimia, 2009)

Target: thymidine kinase from Thermotoga maritima (TmTK) (Thermotoga maritima, UniProt Q9WYN2)
Assay: crystal structures and activity
Type: binding
Details: phosphoryl donor site

thymidine kinase from Thermotoga maritima (TmTK), sequence (Q9WYN2 whole entry): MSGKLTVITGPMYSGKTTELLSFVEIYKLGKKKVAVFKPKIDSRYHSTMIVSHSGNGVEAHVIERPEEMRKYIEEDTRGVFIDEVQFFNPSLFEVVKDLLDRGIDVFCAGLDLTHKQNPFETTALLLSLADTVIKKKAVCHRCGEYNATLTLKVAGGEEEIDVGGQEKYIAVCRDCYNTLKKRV

## Nc1ncnc2c1ncn2[C@@H]1O[C@H](COP(=O)(O)OP(=O)(O)OP(=O)(O)O)[C@@H](O)[C@H]1O [ATP]
  crystal structures and activity (summary of authors' earlier work): large conformational change in the native homotetramer associated with ATP binding
